# Experimental data published in ChEMBL document CHEMBL5303573, “Mapping human microbiome drug metabolism by gut bacteria and their genes” (Nature, 2019).
# Assay: The drug is tested on Bacteroides caccae strain: ATCC43185 for biotransformation. The drug concentrations were measured before and after a 12-h incubation by liquid-chromatography-coupled mass spectrometry (LC–MS)
# Settings: 2 µM
row,Structure (SMILES),Bacterial Biotransformation
1,CCCCC1=NC2(CCCC2)C(=O)N1Cc1ccc(-c2ccccc2-c2nnn[nH]2)cc1 [IRBESARTAN],Compound NOT metabolized
2,NC(CO)(CO)CO.O=C(c1ccccc1)c1ccc2n1CCC2C(=O)O (centres undefined) [KETOROLAC TROMETHAMINE],Compound NOT metabolized

# Assay: The drug is tested on Bacteroides cellulosilyticus strain: DSM14838 for biotransformation. The drug concentrations were measured before and after a 12-h incubation by liquid-chromatography-coupled mass spectrometry (LC–MS)
# Settings: 2 µM
row,Structure (SMILES),Bacterial Biotransformation
1,CCCCC1=NC2(CCCC2)C(=O)N1Cc1ccc(-c2ccccc2-c2nnn[nH]2)cc1 [IRBESARTAN],Compound metabolized
2,NC(CO)(CO)CO.O=C(c1ccccc1)c1ccc2n1CCC2C(=O)O (centres undefined) [KETOROLAC TROMETHAMINE],Compound NOT metabolized

# Assay: The drug is tested on Bacteroides finegoldii strain: DSM17565 for biotransformation. The drug concentrations were measured before and after a 12-h incubation by liquid-chromatography-coupled mass spectrometry (LC–MS)
# Settings: 2 µM
row,Structure (SMILES),Bacterial Biotransformation
1,CCCCC1=NC2(CCCC2)C(=O)N1Cc1ccc(-c2ccccc2-c2nnn[nH]2)cc1 [IRBESARTAN],Compound metabolized

# Assay: The drug is tested on Bacteroides fragilis strain: ATCC43859 for biotransformation. The drug concentrations were measured before and after a 12-h incubation by liquid-chromatography-coupled mass spectrometry (LC–MS)
# Settings: 2 µM
row,Structure (SMILES),Bacterial Biotransformation
1,CCCCC1=NC2(CCCC2)C(=O)N1Cc1ccc(-c2ccccc2-c2nnn[nH]2)cc1 [IRBESARTAN],Compound metabolized
2,NC(CO)(CO)CO.O=C(c1ccccc1)c1ccc2n1CCC2C(=O)O (centres undefined) [KETOROLAC TROMETHAMINE],Compound metabolized

# Assay: The drug is tested on Bacteroides ovatus strain: ATCC8483 for biotransformation. The drug concentrations were measured before and after a 12-h incubation by liquid-chromatography-coupled mass spectrometry (LC–MS)
# Settings: 2 µM
row,Structure (SMILES),Bacterial Biotransformation
1,CCCCC1=NC2(CCCC2)C(=O)N1Cc1ccc(-c2ccccc2-c2nnn[nH]2)cc1 [IRBESARTAN],Compound metabolized

# Assay: The drug is tested on Blautia luti strain: DSM14534 for biotransformation. The drug concentrations were measured before and after a 12-h incubation by liquid-chromatography-coupled mass spectrometry (LC–MS)
# Format: ADME
# Parameters: dose 2 uM, timepoint 0 vs 12 hours
# Settings: 2 µM
row,Structure (SMILES),Bacterial Biotransformation
1,CCCCC1=NC2(CCCC2)C(=O)N1Cc1ccc(-c2ccccc2-c2nnn[nH]2)cc1 [IRBESARTAN],Compound NOT metabolized
2,NC(CO)(CO)CO.O=C(c1ccccc1)c1ccc2n1CCC2C(=O)O (centres undefined) [KETOROLAC TROMETHAMINE],Compound NOT metabolized

# Assay: The drug is tested on Clostridium sp. strain: fecal isolate for biotransformation. The drug concentrations were measured before and after a 12-h incubation by liquid-chromatography-coupled mass spectrometry (LC–MS)
# Settings: 2 µM
row,Structure (SMILES),Bacterial Biotransformation
1,CCCCC1=NC2(CCCC2)C(=O)N1Cc1ccc(-c2ccccc2-c2nnn[nH]2)cc1 [IRBESARTAN],Compound metabolized
2,NC(CO)(CO)CO.O=C(c1ccccc1)c1ccc2n1CCC2C(=O)O (centres undefined) [KETOROLAC TROMETHAMINE],Compound metabolized

# Assay: The drug is tested on Clostridium scindens strain: ATCC35704 for biotransformation. The drug concentrations were measured before and after a 12-h incubation by liquid-chromatography-coupled mass spectrometry (LC–MS)
# Settings: 2 µM
row,Structure (SMILES),Bacterial Biotransformation
1,CCCCC1=NC2(CCCC2)C(=O)N1Cc1ccc(-c2ccccc2-c2nnn[nH]2)cc1 [IRBESARTAN],Compound metabolized
2,NC(CO)(CO)CO.O=C(c1ccccc1)c1ccc2n1CCC2C(=O)O (centres undefined) [KETOROLAC TROMETHAMINE],Compound NOT metabolized

# Assay: The drug is tested on Clostridium symbiosum strain: ATCC14940 for biotransformation. The drug concentrations were measured before and after a 12-h incubation by liquid-chromatography-coupled mass spectrometry (LC–MS)
# Settings: 2 µM
row,Structure (SMILES),Bacterial Biotransformation
1,CCCCC1=NC2(CCCC2)C(=O)N1Cc1ccc(-c2ccccc2-c2nnn[nH]2)cc1 [IRBESARTAN],Compound metabolized
2,NC(CO)(CO)CO.O=C(c1ccccc1)c1ccc2n1CCC2C(=O)O (centres undefined) [KETOROLAC TROMETHAMINE],Compound NOT metabolized

# Assay: The drug is tested on Eubacterium hallii strain: DSM3353 for biotransformation. The drug concentrations were measured before and after a 12-h incubation by liquid-chromatography-coupled mass spectrometry (LC–MS)
# Settings: anaerobutyricum hallii, 2 µM
row,Structure (SMILES),Bacterial Biotransformation
1,CCCCC1=NC2(CCCC2)C(=O)N1Cc1ccc(-c2ccccc2-c2nnn[nH]2)cc1 [IRBESARTAN],Compound metabolized

# Assay: The drug is tested on Eubacterium rectale strain: ATCC33656 for biotransformation. The drug concentrations were measured before and after a 12-h incubation by liquid-chromatography-coupled mass spectrometry (LC–MS)
# Settings: agathobacter rectalis, 2 µM
row,Structure (SMILES),Bacterial Biotransformation
1,CCCCC1=NC2(CCCC2)C(=O)N1Cc1ccc(-c2ccccc2-c2nnn[nH]2)cc1 [IRBESARTAN],Compound NOT metabolized
2,NC(CO)(CO)CO.O=C(c1ccccc1)c1ccc2n1CCC2C(=O)O (centres undefined) [KETOROLAC TROMETHAMINE],Compound NOT metabolized

# Assay: The drug is tested on Subdoligranulum variabile strain: DSM15176 for biotransformation. The drug concentrations were measured before and after a 12-h incubation by liquid-chromatography-coupled mass spectrometry (LC–MS)
# Settings: 2 µM
row,Structure (SMILES),Bacterial Biotransformation
1,CCCCC1=NC2(CCCC2)C(=O)N1Cc1ccc(-c2ccccc2-c2nnn[nH]2)cc1 [IRBESARTAN],Compound metabolized
2,NC(CO)(CO)CO.O=C(c1ccccc1)c1ccc2n1CCC2C(=O)O (centres undefined) [KETOROLAC TROMETHAMINE],Compound metabolized

# Assay: The drug is tested on Enterobacter cancerogenus strain: ATCC35316 for biotransformation. The drug concentrations were measured before and after a 12-h incubation by liquid-chromatography-coupled mass spectrometry (LC–MS)
# Settings: 2 µM
row,Structure (SMILES),Bacterial Biotransformation
1,CCCCC1=NC2(CCCC2)C(=O)N1Cc1ccc(-c2ccccc2-c2nnn[nH]2)cc1 [IRBESARTAN],Compound metabolized
2,NC(CO)(CO)CO.O=C(c1ccccc1)c1ccc2n1CCC2C(=O)O (centres undefined) [KETOROLAC TROMETHAMINE],Compound NOT metabolized

# Assay: The drug is tested on Escherichia coli strain: BW25113 for biotransformation. The drug concentrations were measured before and after a 12-h incubation by liquid-chromatography-coupled mass spectrometry (LC–MS)
# Settings: 2 µM
row,Structure (SMILES),Bacterial Biotransformation
1,CCCCC1=NC2(CCCC2)C(=O)N1Cc1ccc(-c2ccccc2-c2nnn[nH]2)cc1 [IRBESARTAN],Compound metabolized
2,NC(CO)(CO)CO.O=C(c1ccccc1)c1ccc2n1CCC2C(=O)O (centres undefined) [KETOROLAC TROMETHAMINE],Compound NOT metabolized

# Settings: bacteroides fragilis, 12 h, 2 µM
# Description: The drug is tested on Bacteroides fragilis strain: NCTC 9343 for biotransformation. The drug concentrations were measured before and after a 12-h incubation by liquid-chromatography-coupled mass spectrometry (LC–MS)
row,Structure (SMILES),Bacterial Biotransformation
1,CCCCC1=NC2(CCCC2)C(=O)N1Cc1ccc(-c2ccccc2-c2nnn[nH]2)cc1 [IRBESARTAN],Compound metabolized
2,NC(CO)(CO)CO.O=C(c1ccccc1)c1ccc2n1CCC2C(=O)O (centres undefined) [KETOROLAC TROMETHAMINE],Compound metabolized

# Settings: bacteroides fragilis, 12 h, 2 µM
# Remark: another data set of the same source
# Description: The drug is tested on Bacteroides fragilis strain: DS-208 for biotransformation. The drug concentrations were measured before and after a 12-h incubation by liquid-chromatography-coupled mass spectrometry (LC–MS)
row,Structure (SMILES),Bacterial Biotransformation
1,CCCCC1=NC2(CCCC2)C(=O)N1Cc1ccc(-c2ccccc2-c2nnn[nH]2)cc1 [IRBESARTAN],Compound metabolized
2,NC(CO)(CO)CO.O=C(c1ccccc1)c1ccc2n1CCC2C(=O)O (centres undefined) [KETOROLAC TROMETHAMINE],Compound metabolized

# Settings: bacteroides thetaiotaomicron, 12 h, 2 µM
# Description: The drug is tested on Bacteroides thetaiotaomicron strain: VPI-5482 for biotransformation. The drug concentrations were measured before and after a 12-h incubation by liquid-chromatography-coupled mass spectrometry (LC–MS)
row,Structure (SMILES),Bacterial Biotransformation
1,CCCCC1=NC2(CCCC2)C(=O)N1Cc1ccc(-c2ccccc2-c2nnn[nH]2)cc1 [IRBESARTAN],Compound metabolized
2,NC(CO)(CO)CO.O=C(c1ccccc1)c1ccc2n1CCC2C(=O)O (centres undefined) [KETOROLAC TROMETHAMINE],Compound metabolized

# Settings: bacteroides thetaiotaomicron, 12 h, 2 µM
# Remark: another data set of the same source
# Description: The drug is tested on Bacteroides thetaiotaomicron strain: 3731 for biotransformation. The drug concentrations were measured before and after a 12-h incubation by liquid-chromatography-coupled mass spectrometry (LC–MS)
row,Structure (SMILES),Bacterial Biotransformation
1,CCCCC1=NC2(CCCC2)C(=O)N1Cc1ccc(-c2ccccc2-c2nnn[nH]2)cc1 [IRBESARTAN],Compound NOT metabolized
2,NC(CO)(CO)CO.O=C(c1ccccc1)c1ccc2n1CCC2C(=O)O (centres undefined) [KETOROLAC TROMETHAMINE],Compound metabolized

# Settings: parabacteroides distasonis, 12 h, 2 µM
# Description: The drug is tested on Parabacteroides distasonis strain: ATCC8503 for biotransformation. The drug concentrations were measured before and after a 12-h incubation by liquid-chromatography-coupled mass spectrometry (LC–MS)
row,Structure (SMILES),Bacterial Biotransformation
1,CCCCC1=NC2(CCCC2)C(=O)N1Cc1ccc(-c2ccccc2-c2nnn[nH]2)cc1 [IRBESARTAN],Compound metabolized
